{"source": "patent US8178579B2", "about": "“Dioxanes and uses thereof” (President and Fellows of Harvard College, priority 2001, dated 2012)", "key": {"HDAC6": {"molecular_target": "T1, HDAC6 (Homo sapiens, UniProt Q9UBN7)", "T1 sequence (Q9UBN7 1-1215)": "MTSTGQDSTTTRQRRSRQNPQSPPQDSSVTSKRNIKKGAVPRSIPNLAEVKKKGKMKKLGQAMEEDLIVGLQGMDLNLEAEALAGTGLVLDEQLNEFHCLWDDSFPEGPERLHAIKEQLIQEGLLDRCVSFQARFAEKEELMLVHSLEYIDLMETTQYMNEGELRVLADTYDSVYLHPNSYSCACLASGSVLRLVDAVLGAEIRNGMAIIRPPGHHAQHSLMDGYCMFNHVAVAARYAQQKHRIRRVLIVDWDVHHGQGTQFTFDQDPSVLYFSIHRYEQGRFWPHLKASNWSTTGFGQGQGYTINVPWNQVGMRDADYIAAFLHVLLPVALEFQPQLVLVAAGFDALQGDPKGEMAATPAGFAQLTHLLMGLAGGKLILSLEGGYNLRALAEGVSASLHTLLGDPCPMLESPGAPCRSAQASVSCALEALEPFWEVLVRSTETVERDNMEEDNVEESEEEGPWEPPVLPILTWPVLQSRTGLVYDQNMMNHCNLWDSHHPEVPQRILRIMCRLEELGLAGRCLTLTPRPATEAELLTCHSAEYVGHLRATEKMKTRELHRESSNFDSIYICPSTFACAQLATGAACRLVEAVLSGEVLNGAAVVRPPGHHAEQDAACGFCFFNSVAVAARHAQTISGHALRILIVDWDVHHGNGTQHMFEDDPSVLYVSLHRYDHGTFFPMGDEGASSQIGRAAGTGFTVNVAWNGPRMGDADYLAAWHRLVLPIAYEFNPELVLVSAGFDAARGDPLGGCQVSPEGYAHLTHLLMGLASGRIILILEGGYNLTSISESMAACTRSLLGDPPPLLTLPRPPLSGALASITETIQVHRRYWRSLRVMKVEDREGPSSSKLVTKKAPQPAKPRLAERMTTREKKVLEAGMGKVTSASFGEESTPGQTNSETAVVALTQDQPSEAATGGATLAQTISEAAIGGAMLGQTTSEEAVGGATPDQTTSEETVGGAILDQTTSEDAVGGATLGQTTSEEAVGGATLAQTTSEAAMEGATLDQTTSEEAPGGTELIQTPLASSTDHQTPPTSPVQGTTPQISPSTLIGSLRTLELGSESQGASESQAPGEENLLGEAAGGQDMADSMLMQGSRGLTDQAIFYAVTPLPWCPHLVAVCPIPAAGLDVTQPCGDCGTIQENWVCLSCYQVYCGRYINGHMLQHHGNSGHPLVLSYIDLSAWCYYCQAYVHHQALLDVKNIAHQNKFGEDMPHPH", "experiment": "HDAC assay, [3H]acetate-incorporated histones with immunoprecipitated FLAG-tagged HDAC6 (HDAC6F)", "type": "biochemical", "parameters": "made in house; host or cells: TAg Jurkat cells, transient transfection, anti-FLAG M2 immunoprecipitation", "settings": "[3H]-labeled histones, n=3", "procedure": "Cell culture and Transfections. TAg-Jurkat cells were transfected by electroporation with 5 μg of FLAG-epitope-tagged pBJ5 constructs (as described in ref. 5c) for expression of recombinant proteins. Cells were harvested 48 h posttransfection.\nHDAC assays. […] Compounds were added in DMSO such that final assay concentrations were 1% DMSO. IC50s were calculated using Prism 3.0 software. Curve fitting was done without constraints using the program's Sigmoidal-Dose Response parameters. All data points were acquired in duplicate and IC50s are calculated from the composite results of at least two separate experiments.\n(§1) Tubulin and MAPs were isolated from bovine brain as described [See http://mitchison.med.harvard.edu/protocols/tubprep.html]. Whole brain and fractions from phosphocellulose chromatography were blotted for HDAC6 and acetylated α-tubulin. Cultured hippocampal neurons from dissociated 1-day old rat brains were transfected with an enhanced green fluorescent protein (EGFP)-actin construct at 4-5 days using the calcium phosphate method [E. N. Star, D. J. Kwiatkowski and V. N. Murthy, Nat. Neurosci. […] K. Miranti and M. E. Greenberg, J. Neurosci. […] Transfected cultures were allowed to grow for at least 48 h before the addition of experimental compounds.\n(§2) [^3H]Acetate-incorporated histones were isolated from butyrate-treated HeLa cells as described [J. Taunton, C. […] Immunoprecipitates were incubated with acetylated histones and HDAC activity determined by scintillation counting as described [J. Taunton, C. […] TDAC assays were performed with immunoprecipitates using MAP-stabilized microtubules polymerized from MAP-rich tubulin fraction as described [C. […] Reactions were incubated (2 h) at 37° C., then incubated on ice (15 min)."}, "A549 cells": {"system": "A549 cells", "experiment": "cell cycle (BrdU labeling, FACS) and cell morphology", "type": "cell-based, human", "settings": "for effect on cell cycle / DNA synthesis: FACS: 4 h, TSA 300 nM, tubacin 2 μM", "procedure": "Bromodeoxyuridine labeling and fluorescence-activated cell sorting (FACS) were performed as described (K. M. Koeller et al., Chemistry & Biology, 10 (5) (2003) pp. 397-410). […] Samples were rinsed in PBS, trypsinized, and fixed for two hours in 70% ethanol/30% PBS (4° C.). Cells were then washed once in PBS and stored overnight in PBS (4° C.). To measure acetylated tubulin levels, samples were blocked for 45 minutes in ADB, aspirated, and incubated in ADB with anti-acetylated tubulin (1:500) overnight (4° C.). Samples were washed twice in ADB and incubated in ADB with FITC-conjugated anti-mouse IgG (goat; 1:200) for one hour (room temperature). After washing twice in TBS, cells were resuspended in 100 μL of ribonuclease A (100 μg/mL) and incubated for five minutes (37° C.). To measure the DNA content, 400 μL of propidium iodide (50 μg/mL) was added to the samples and incubated for one hour (room temperature). Samples were analyzed using a FACScanII flow cytometer (Becton-Dickinson), at the Dana Farber Cancer Institute, exciting at 488 nm and measuring the acetylated tubulin-linked FITC fluorescence through a 514 nm bandpass filter and the PI fluorescence through a 600 nm wave-length filter. Cell cycle distributions were calculated from 10,000 cells and modeled using ModFit LT (V2.0) software."}, "HDAC6F": {"molecular_target": "T2, HDAC6F (Homo sapiens, UniProt Q9UBN7)", "T2 construct": "made in house; host or cells: TAg Jurkat cells, transient transfection, anti-FLAG M2 immunoprecipitation", "T2 sequence (Q9UBN7 1-1215)": "T1 sequence (Q9UBN7 1-1215)", "experiment": "in vitro tubulin deacetylase (TDAC) assay, immunoprecipitated wild-type HDAC6F, MAP-stabilized tubulin", "type": "biochemical", "settings": "TSA 300 nM or 1 μM; tubacin, niltubacin, trapoxin B 1 μM", "excerpt": "as §1, §2"}}, "note": "Entries after “also recorded” stand apart in the source; their conditions may differ. Read-outs that look alike come from different tables or passages of the source."}
{"smiles": "O=C(CCCCCCC(=O)Nc1ccc([C@@H]2OC(c3ccc(CO)cc3)C[C@H](CSc3nc(-c4ccccc4)c(-c4ccccc4)o3)O2)cc1)NO", "note": "(stereo partly drawn) [tubacin]", "values": [{"measurement": "inhibition of HDAC activity of wild-type HDAC6F", "setting": "HDAC6", "value": "only partial inhibited by TSA or tubacin"}, {"measurement": "effect on cell morphology", "setting": "A549 cells", "value": "had no overall effect on the morphology of A549 cells"}, {"measurement": "effect on cell cycle / DNA synthesis", "setting": "A549 cells", "value": "No effect of tubacin on DNA synthesis or cell cycle distribution; also recorded: had no such effects"}, {"measurement": "effect on cell cycle / DNA synthesis", "setting": "A549 cells; listed as JCWII114", "value": "no apparent affect on the cell cycle or on cell morphology"}, {"measurement": "effect on cell morphology", "setting": "A549 cells; listed as JCWII114", "value": "no apparent affect on the cell cycle or on cell morphology"}, {"measurement": "inhibition of TDAC activity of wild-type HDAC6F", "setting": "HDAC6F", "value": "inhibited by TSA (300 nM) or tubacin (1 μM); also recorded: inhibited α-tubulin deacetylation"}]}
{"smiles": "CC(/C=C/C(=O)NO)=C\\[C@@H](C)C(=O)c1ccc(N(C)C)cc1", "note": "[TSA, trichostatin A, reference compound]", "values": [{"measurement": "inhibition of HDAC activity of wild-type HDAC6F", "setting": "HDAC6", "value": "only partial inhibited by TSA or tubacin"}, {"measurement": "effect on cell cycle / DNA synthesis", "setting": "A549 cells", "value": "marked loss of a BrdU-positive S-phase population"}, {"measurement": "inhibition of TDAC activity of wild-type HDAC6F", "setting": "HDAC6F", "value": "inhibited by TSA (300 nM) or tubacin (1 μM); also recorded: inhibited α-tubulin deacetylation"}]}
